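How tested: cells in 96-well plates exposed to compound for 48 hours at five concentrations. GI50 = concentration required for 50% inhibition of growth. At the TGI there is no net growth.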
Experiments:
Assay in all cases: growth of human tumour cells (NCI), 48 h
[1] = system: OVCAR-8 ovarian
[2] = system: MALME-3M melanoma
[3] = system: HCT-116 colon
[4] = system: OVCAR-4 ovarian
[5] = system: SK-MEL-28 melanoma
[6] = system: MDA-MB-231 breast
[7] = system: SR leukemia
[8] = system: LOX IMVI melanoma
[9] = system: BT-549 breast
[10] = system: NCI/ADR-RES ovarian
[11] = system: COLO 205 colon
[12] = system: HL-60(TB) leukemia
[13] = system: SNB-19 CNS
[14] = system: NCI-H522 lung
[15] = system: KM12 colon
[16] = system: HS 578T breast
[17] = system: K-562 leukemia
[18] = system: ACHN renal
[19] = system: MOLT-4 leukemia
[20] = system: SF-539 CNS
[21] = system: HCT-15 colon
[22] = system: T-47D breast
[23] = system: NCI-H23 lung
[24] = system: TK-10 renal
[25] = system: OVCAR-3 ovarian
[26] = system: MCF7 breast
[27] = system: OVCAR-5 ovarian
[28] = system: UO-31 renal
[29] = system: SW-620 colon
[30] = system: RXF 393 renal
[31] = system: NCI-H460 lung
[32] = system: CAKI-1 renal
[33] = system: DU-145 prostate
[34] = system: IGROV1 ovarian
[35] = system: M14 melanoma
[36] = system: HT29 colon
[37] = system: CCRF-CEM leukemia
[38] = system: A549 NSCLC
[39] = system: MDA-MB-435
[40] = system: SF-268 CNS
[41] = system: HCC-2998 colon
[42] = system: SK-MEL-2 melanoma
[43] = system: RPMI-8226 leukemia
[44] = system: A498 renal
[45] = system: PC-3 prostate
[46] = system: HOP-62 NSCLC
[47] = system: SF-295 CNS
[48] = system: U251 CNS
[49] = system: EKVX NSCLC
[50] = system: UACC-62 melanoma
[51] = system: SNB-75 CNS
[52] = system: 786-0 renal
[53] = system: SN12C renal
[54] = system: SK-MEL-5 melanoma
[55] = system: UACC-257 melanoma
[56] = system: SK-OV-3 ovarian
[57] = system: HOP-92 NSCLC
[58] = system: NCI-H226 lung

Molecule CCCCC/C=C/C(=O)CCc1ccc(O)c(OC)c1 has a GI50 [1] of 4.03 µM, a TGI [1] of 16.7 µM and a GI50 [2] of 16.6 µM. For the same molecule, the TGI [2] was 35.3 µM, the GI50 [3] was 1.71 µM and the TGI [3] was 3.26 µM. The GI50 [4] was 11 µM, the TGI [4] was 23.1 µM and the GI50 [5] was 15 µM. For the same molecule, the TGI [5] was 28.7 µM, the GI50 [6] was 12.6 µM and the TGI [6] was 32.8 µM. The GI50 [7] was 2.89 µM, the TGI [7] was greater than 100 µM and the GI50 [8] was 1.6 µM. The TGI [8] was 3.29 µM, the GI50 [9] was 13.2 µM and the TGI [9] was 26.7 µM. The GI50 [10] was 7.49 µM, the TGI [10] was 37 µM and the GI50 [11] was 11.2 µM. For the same molecule, the TGI [11] was 24.1 µM, the GI50 [12] was 0.784 µM and the TGI [12] was 43.9 µM. It also gave a GI50 [13] of 14 µM, a TGI [13] of 27.1 µM and a GI50 [14] of 2 µM. For the same molecule, the TGI [14] was 13.6 µM, the GI50 [15] was 3.09 µM and the TGI [15] was 11.7 µM. It also gave a GI50 [16] of 3.49 µM, a TGI [16] of 32.8 µM and a GI50 [17] of 3.77 µM. For the same molecule, the TGI [17] was greater than 100 µM, the GI50 [18] was 11.8 µM and the TGI [18] was 24.1 µM. The GI50 [19] was 10.1 µM, the TGI [19] was greater than 100 µM and the GI50 [20] was 5.4 µM. It also gave a TGI [20] of 20.6 µM, a GI50 [21] of 10.8 µM and a TGI [21] of 27.2 µM. It also gave a GI50 [22] of 4.78 µM, a TGI [22] of 18.9 µM and a GI50 [23] of 4.62 µM. For the same molecule, the TGI [23] was 17.9 µM, the GI50 [24] was 11.6 µM and the TGI [24] was 24.7 µM. It also gave a GI50 [25] of 3.23 µM, a TGI [25] of 12.9 µM and a GI50 [26] of 3.11 µM. The TGI [26] was 15.8 µM, the GI50 [27] was 16.2 µM and the TGI [27] was 32.1 µM. It also gave a GI50 [28] of 1.28 µM, a TGI [28] of 13.6 µM and a GI50 [29] of 2.86 µM. For the same molecule, the TGI [29] was 10.3 µM, the GI50 [30] was 5.4 µM and the TGI [30] was 18.6 µM. For the same molecule, the GI50 [31] was 15.2 µM, the TGI [31] was 33.6 µM and the GI50 [32] was 9.38 µM. The TGI [32] was 27.5 µM, the GI50 [33] was 4.03 µM and the TGI [33] was 15.4 µM. The GI50 [34] was 1.74 µM, the TGI [34] was 6.91 µM and the GI50 [35] was 5.5 µM. The TGI [35] was 19.4 µM, the GI50 [36] was 2.13 µM and the TGI [36] was 4.94 µM. It also gave a GI50 [37] of 0.198 µM, a TGI [37] of 3.01 µM and a GI50 [38] of 6.25 µM. It also gave a TGI [38] of 20.8 µM, a GI50 [39] of 4.04 µM and a TGI [39] of 19 µM. For the same molecule, the GI50 [40] was 10.9 µM, the TGI [40] was 25.5 µM and the GI50 [41] was 16.7 µM. For the same molecule, the TGI [41] was 30.7 µM, the GI50 [42] was 14.8 µM and the TGI [42] was 28.8 µM. For the same molecule, the GI50 [43] was 1.69 µM, the TGI [43] was 4.34 µM and the GI50 [44] was 13.1 µM. It also gave a TGI [44] of 26.8 µM, a GI50 [45] of 3.75 µM and a TGI [45] of 18 µM. The GI50 [46] was 9.77 µM, the TGI [46] was 22.1 µM and the GI50 [47] was 10.4 µM. For the same molecule, the TGI [47] was 31 µM, the GI50 [48] was 4.65 µM and the TGI [48] was 17.1 µM. It also gave a GI50 [49] of 15.1 µM, a TGI [49] of 31.9 µM and a GI50 [50] of 13.9 µM. The TGI [50] was 27.7 µM, the GI50 [51] was 5.63 µM and the TGI [51] was 20.5 µM. For the same molecule, the GI50 [52] was 10.6 µM, the TGI [52] was 23.6 µM and the GI50 [53] was 7.99 µM. It also gave a TGI [53] of 21.4 µM, a GI50 [54] of 12.4 µM and a TGI [54] of 25.1 µM. It also gave a GI50 [55] of 9.67 µM, a TGI [55] of 22.3 µM and a GI50 [56] of 13.8 µM. It also gave a TGI [56] of 27.4 µM, a GI50 [57] of 3.42 µM and a TGI [57] of 18.5 µM.
For COc1ccc2c(c1)CC[C@@H]1[C@@H]2CC[C@]2(C)C(c3ccsc3)=C(/C=C/C(=O)c3ccccc3)C[C@@H]12, the GI50 [1] was greater than 100 µM, the TGI [1] was greater than 100 µM and the GI50 [2] was greater than 100 µM. For the same molecule, the TGI [2] was greater than 100 µM, the GI50 [3] was greater than 100 µM and the TGI [3] was greater than 100 µM. For the same molecule, the GI50 [4] was greater than 100 µM, the TGI [4] was greater than 100 µM and the GI50 [5] was greater than 100 µM. It also gave a TGI [5] greater than 100 µM, a GI50 [6] greater than 100 µM and a TGI [6] greater than 100 µM. The GI50 [7] was 19.9 µM, the TGI [7] was greater than 100 µM and the GI50 [8] was greater than 100 µM. For the same molecule, the TGI [8] was greater than 100 µM, the GI50 [9] was greater than 100 µM and the TGI [9] was greater than 100 µM. It also gave a GI50 [10] greater than 100 µM, a TGI [10] greater than 100 µM and a GI50 [11] greater than 100 µM. For the same molecule, the TGI [11] was greater than 100 µM, the GI50 [12] was 13.4 µM and the TGI [12] was greater than 100 µM. For the same molecule, the GI50 [13] was greater than 100 µM, the TGI [13] was greater than 100 µM and the GI50 [14] was greater than 100 µM. The TGI [14] was greater than 100 µM, the GI50 [15] was greater than 100 µM and the TGI [15] was greater than 100 µM. It also gave a GI50 [16] greater than 100 µM, a TGI [16] greater than 100 µM and a GI50 [17] greater than 100 µM. The TGI [17] was greater than 100 µM, the GI50 [18] was greater than 100 µM and the TGI [18] was greater than 100 µM. For the same molecule, the GI50 [19] was 2.67 µM, the TGI [19] was greater than 100 µM and the GI50 [20] was greater than 100 µM. It also gave a TGI [20] greater than 100 µM, a GI50 [21] greater than 100 µM and a TGI [21] greater than 100 µM. For the same molecule, the GI50 [22] was greater than 100 µM, the TGI [22] was greater than 100 µM and the GI50 [23] was greater than 100 µM. For the same molecule, the TGI [23] was greater than 100 µM, the GI50 [24] was greater than 100 µM and the TGI [24] was greater than 100 µM. For the same molecule, the GI50 [25] was greater than 100 µM, the TGI [25] was greater than 100 µM and the GI50 [26] was greater than 100 µM. It also gave a TGI [26] greater than 100 µM, a GI50 [27] greater than 100 µM and a TGI [27] greater than 100 µM. The GI50 [28] was greater than 100 µM, the TGI [28] was greater than 100 µM and the GI50 [29] was greater than 100 µM. The TGI [29] was greater than 100 µM, the GI50 [30] was greater than 100 µM and the TGI [30] was greater than 100 µM. For the same molecule, the GI50 [31] was greater than 100 µM, the TGI [31] was greater than 100 µM and the GI50 [32] was greater than 100 µM. For the same molecule, the TGI [32] was greater than 100 µM, the GI50 [33] was greater than 100 µM and the TGI [33] was greater than 100 µM. It also gave a GI50 [34] greater than 100 µM, a TGI [34] greater than 100 µM and a GI50 [35] greater than 100 µM. It also gave a TGI [35] greater than 100 µM, a GI50 [36] greater than 100 µM and a TGI [36] greater than 100 µM. The GI50 [37] was greater than 100 µM, the TGI [37] was greater than 100 µM and the GI50 [38] was greater than 100 µM. It also gave a TGI [38] greater than 100 µM, a GI50 [39] greater than 100 µM and a TGI [39] greater than 100 µM. The GI50 [40] was greater than 100 µM, the TGI [40] was greater than 100 µM and the GI50 [41] was 67.4 µM. It also gave a TGI [41] greater than 100 µM, a GI50 [42] greater than 100 µM and a TGI [42] greater than 100 µM. For the same molecule, the GI50 [58] was greater than 100 µM, the TGI [58] was greater than 100 µM and the GI50 [43] was 50.3 µM. It also gave a TGI [43] greater than 100 µM, a GI50 [44] greater than 100 µM and a TGI [44] greater than 100 µM. For the same molecule, the GI50 [45] was 39 µM, the TGI [45] was greater than 100 µM and the GI50 [46] was greater than 100 µM. The TGI [46] was greater than 100 µM, the GI50 [47] was greater than 100 µM and the TGI [47] was greater than 100 µM. It also gave a GI50 [48] greater than 100 µM, a TGI [48] greater than 100 µM and a GI50 [49] greater than 100 µM. It also gave a TGI [49] greater than 100 µM, a GI50 [50] greater than 100 µM and a TGI [50] greater than 100 µM. For the same molecule, the GI50 [51] was greater than 100 µM, the TGI [51] was greater than 100 µM and the GI50 [52] was greater than 100 µM. It also gave a TGI [52] greater than 100 µM, a GI50 [53] greater than 100 µM and a TGI [53] greater than 100 µM. For the same molecule, the GI50 [54] was greater than 100 µM, the TGI [54] was greater than 100 µM and the GI50 [55] was greater than 100 µM. It also gave a TGI [55] greater than 100 µM, a GI50 [56] greater than 100 µM and a TGI [56] greater than 100 µM.

Reference: PubChem BioAssay (NCI)
